Results from patent US20240034743A9, “TRICYCLIC COMPOUNDS AS EGFR INHIBITORS” (QILU PHARMACEUTICAL CO., LTD., priority 2020, published 2024).
Where two headings read alike, the source gives them in different places.

Columns and labels:
A431 cells (EGFR WT) = assay: A431 cell proliferation inhibition assay (CellTiter-Glo); type: cell-based; conditions: Homo sapiens
Procedure: A431 Cell Proliferation Inhibition Assay
In the assay, the inhibition effect of the compounds on the proliferation of A431 cells was tested by adopting a CellTiter-Glo method, and the concentration IC50 of the compound for inhibiting half maximal growth of cells was obtained.
A431 cells, purchased from ATCC.
DMEM medium, fetal bovine serum (FBS), and Penicillin-Streptomycin, purchased from GIBCO.
(§1) Brigatinib, purchased from Selleck.
(§2) CellTiter-Glo reagent, purchased from Promega.
1) A431 cells were seeded in a 384-well plate at a density of 800 cells/well with 30 μL/well, and the plate was cultured in a cell incubator for 24 h (37° C., 5% CO2).
(§3) 2) Day 0: […] of gradiently-diluted compounds to be tested with a final concentration of DMSO of 0.1% was added to plate using Echo, and the plate was incubated in a cell incubator for 72 h (37° C., 5% CO2). […] of DMSO was added into each well in blank control group.
(§4) 3) Day 3: 30 μL Cell Titer-Glo reagent was added to each well, and the plate was in the dark under room temperature for 30 min.
(§5) 4) The chemiluminescent signal was detected by an Envision plate reader (PerkinElmer).
(§6) 5) Data analysis was performed using GraphPad Prism software to give the IC50 for compounds.

[1] = tested on: Ba/F3_Del19/T790M/C797S cells; assay: Ba/F3_Del19/T790M/C797S cell proliferation inhibition assay (CellTiter-Glo); type: cell-based; conditions: Mus musculus
Procedure: Ba/F3_Del19/T790M/C797S Cell Proliferation Inhibition Assay
In the assay, the inhibition effect of the compounds on the proliferation of Ba/F3_Del19/T790M/C797S cells was tested by adopting a CellTiter-Glo method, and the concentration IC50 of the compound for inhibiting half maximal growth of cells was obtained.
Ba/F3_Del19/T790M/C797S, purchased from Kyinno Biotechnology Co., Ltd. 1640 medium, fetal bovine serum (FBS), Penicillin-Streptomyces, and GlutaMAX-I Supplement, purchased from GIBCO.
as §1, §2
1) Ba/F3_Del19/T790M/C797S cells were seeded in a 384-well plate at a density of 700 cells/well with 30 μL/well.
as §3, §4, §5
Data analysis was performed using GraphPad Prism 6 software to give the IC50 for compounds.

[2] = tested on: Ba/F3_L858R/T790M/C797S cells; assay: Ba/F3_L858R/T790M/C797S cell proliferation inhibition assay (CellTiter-Glo); type: cell-based; conditions: Mus musculus
Procedure: Ba/F3_L858R/T790M/C797S Cell Proliferation Inhibition Assay
In the assay, the inhibition effect of the compounds on the proliferation of Ba/F3_L858R/T790M/C797S cells was tested by adopting a CellTiter-Glo method, and the concentration IC50 of the compound for inhibiting half maximal growth of cells was obtained.
Ba/F3_L858R/T790M/C797S cells were constructed by Pharmaron Beijing Co., Ltd.
1640 medium, fetal bovine serum (FBS), Penicillin-Streptomyces, and GlutaMAX-I Supplement, purchased from GIBCO.
as §1, §2
1) Ba/F3_L858R/T790M/C797S cells were seeded in a 384-well plate at a density of 700 cells/well with 30 μL/well.
as §3, §4, §5, §6

EGFR WT (wild type EGFR) = EGFR WT (wild type EGFR) (Homo sapiens (Human), UniProt P00533); assay: In vitro enzymatic TR-FRET (HTRF KinEASE-TK) kinase assay, EGFR WT; type: biochemical
Chain of EGFR WT (wild type EGFR) (P00533 25-1210): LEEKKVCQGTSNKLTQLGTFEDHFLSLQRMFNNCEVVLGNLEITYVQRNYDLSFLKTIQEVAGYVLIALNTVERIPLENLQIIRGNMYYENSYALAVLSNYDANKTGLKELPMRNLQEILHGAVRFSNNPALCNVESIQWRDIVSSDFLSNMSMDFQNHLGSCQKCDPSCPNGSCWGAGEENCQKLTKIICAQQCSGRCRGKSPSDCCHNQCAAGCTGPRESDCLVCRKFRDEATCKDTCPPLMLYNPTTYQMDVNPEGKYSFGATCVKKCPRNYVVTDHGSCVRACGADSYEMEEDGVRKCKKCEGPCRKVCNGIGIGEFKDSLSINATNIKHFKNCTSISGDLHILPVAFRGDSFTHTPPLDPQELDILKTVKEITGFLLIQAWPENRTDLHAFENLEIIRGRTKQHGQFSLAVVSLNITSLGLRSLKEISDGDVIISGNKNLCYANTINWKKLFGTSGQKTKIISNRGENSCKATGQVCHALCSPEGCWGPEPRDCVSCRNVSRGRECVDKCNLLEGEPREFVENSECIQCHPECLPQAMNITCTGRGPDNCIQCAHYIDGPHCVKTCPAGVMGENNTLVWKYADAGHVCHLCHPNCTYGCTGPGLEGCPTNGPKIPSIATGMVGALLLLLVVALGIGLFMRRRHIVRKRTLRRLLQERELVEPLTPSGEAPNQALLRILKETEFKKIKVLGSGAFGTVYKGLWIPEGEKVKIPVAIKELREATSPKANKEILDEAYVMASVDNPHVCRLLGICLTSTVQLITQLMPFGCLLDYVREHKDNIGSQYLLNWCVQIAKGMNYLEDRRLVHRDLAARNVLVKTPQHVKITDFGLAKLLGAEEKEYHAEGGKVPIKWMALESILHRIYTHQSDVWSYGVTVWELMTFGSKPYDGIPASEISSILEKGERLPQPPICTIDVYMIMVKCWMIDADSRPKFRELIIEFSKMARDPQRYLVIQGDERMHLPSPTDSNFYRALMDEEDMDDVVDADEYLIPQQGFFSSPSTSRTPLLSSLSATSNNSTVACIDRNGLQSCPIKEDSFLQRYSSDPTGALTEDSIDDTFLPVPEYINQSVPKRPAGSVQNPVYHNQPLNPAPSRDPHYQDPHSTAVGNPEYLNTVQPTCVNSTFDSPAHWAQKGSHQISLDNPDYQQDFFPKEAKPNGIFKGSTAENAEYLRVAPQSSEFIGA
Procedure: (I) In Vitro Enzymatic Experiment for EGFR WT and EGFR L858R/T790M/C797S
In the assay, the inhibition effect of the compound on the kinase activity of EGFR WT (wild type EGFR) and EGFR L858R/T790M/C797S was tested by adopting a time-resolved fluorescence resonance energy transfer (TR-FRET) method, and half maximal inhibitory concentration IC50 of the compound on the kinase activity of EGFR was obtained.
EGFR recombinase and EGFR L858R/T790M/C797S recombinase, purchased from Signalchem.
HTRF KinEASE-TK kit, purchased from Cisbio.
DTT, MnCl2, and MgCl2, purchased from Sigma.
ATP, purchased from Promega.
as §1
1) 1× working solution was prepared: 5 mM MgCl2; 1 mM DTT; 1 mM MnCl2 and 1× kinase buffer (in kit).
2) […] of gradiently-diluted compound was transferred to a 384-well plate using Echo 550 (Labcyte).
3) 5 μL of 2× EGFR WT or EGFR L858R/T790M/C797S recombinase solution was added to the 384-well plate, and the plate was incubated at room temperature for 10 min.
4) 5 μL of 2× TK-substrate-biotin substrate solution (containing ATP) was added to the 384-well plate, and the plate was incubated at room temperature for 40 min.
5) 5 μL of assay solution containing Sa-XL 665 HTRF and 5 μL of TK-antibody-Cryptatewas were added to the plate, and the plate was incubated at room temperature for 1 h.
6) The fluorescence signal values at 615 nm and 665 nm were measured for each well using an Envision microplate reader (PerkinElmer).
7) The ratio of fluorescence signal values at 665 nm and 615 nm was calculated for each well.
8) Data analysis was performed using GraphPad Prism software to give the IC50 for compounds.

[3] = A-431, cell proliferation, 72 h, CellTiter-Glo, read-out: A431 EGFR WT IC50
[4] = BaF3, cell proliferation, 72 h, CellTiter-Glo, read-out: Ba/F3 (Del19/T790M/C797S) IC50
[5] = BaF3, cell proliferation, 72 h, CellTiter-Glo, read-out: Ba/F3 (L858R/T790M/C797S) IC50
[6] = kinase activity, TR-FRET, read-out: EGFR (WT) IC50
[7] = A-431, 72 h, read-out: A431 EGFR WT IC50(nM)
[8] = BaF3, 72 h, read-out: Ba/F3 (Del19/T790M/C797S) IC50(nM)
[9] = BaF3, 72 h, read-out: Ba/F3 (L858R/T790M/C797S) IC50(nM)

Structure (SMILES) | IC50 (A431 cells (EGFR WT); [3]) | IC50 [1, 4] | IC50 [2, 5] | IC50 (EGFR WT (wild type EGFR); [6]) | IC50 (A431 cells (EGFR WT); [7]) | IC50 [1, 8] | IC50 [2, 9] | IC50 (EGFR WT (wild type EGFR))
COc1nc2c(cc1Nc1ncc(Br)c(Nc3ccccc3P(C)(C)=O)n1)-c1cnn(C)c1CCN2 [Compound 51] | 100 to 1000 nM | < 10 nM | 10 to 50 nM | 10 to 50 nM |  |  |  | 
COc1nc2c(cc1Nc1ncc(Br)c(Nc3ccc4nccnc4c3P(C)(C)=O)n1)-c1cnn(C)c1CCN2 [Compound 52] | 100 to 1000 nM | < 10 nM | < 10 nM | 1 to 10 nM |  |  |  | 
COc1cc2c(cc1Nc1ncc(Br)c(Nc3ccccc3NS(C)(=O)=O)n1)-c1cnn(C)c1CCN2C(C)C [Compound 54] | 100 to 1000 nM | < 10 nM | 10 to 50 nM | 1 to 10 nM |  |  |  | 
COc1cc2c(cc1Nc1ncc(Br)c(Nc3ccccc3P(C)(C)=O)n1)-c1cnc(C)n1CCN2C [Compound 55] | 100 to 1000 nM | 10 to 50 nM | 100 to 1000 nM | 10 to 50 nM |  |  |  | 
COc1cc2c(cc1Nc1ncc(Br)c(Nc3ccccc3P(C)(C)=O)n1)-c1cn(CCN(C)C)nc1CCN2C(C)C [Compound 56] |  |  |  | 1 to 10 nM | 100 to 1000 nM | < 10 nM | 10 to 50 nM | 
COc1cc2c(cc1Nc1nc(Nc3ccccc3P(C)(C)=O)c3sccc3n1)-c1cnn(C)c1CCN2C [Compound 58] | > 1000 nM | 10 to 50 nM | 10 to 50 nM | 10 to 50 nM |  |  |  | 
COc1cc2c(cc1Nc1nc(Nc3ccc4nccnc4c3P(C)(C)=O)c3cc[nH]c3n1)-c1cnn(C)c1CCN2C [Compound 60] | 10 to 50 nM | < 10 nM | < 10 nM | 1 to 10 nM |  |  |  | 
COc1cc2c(cc1Nc1nc(Nc3ccc4nccnc4c3P(C)(C)=O)c3sccc3n1)-c1cnn(C)c1CCN2C [Compound 61] | 10 to 50 nM | < 10 nM | < 10 nM | 1 to 10 nM |  |  |  | 
COc1cc2c(cc1Nc1ncc(Br)c(Nc3ccccc3P(C)(C)=O)n1)-c1cnn(C)c1CCN2C1CCN(C)CC1F (stereo not shown) [Compound 65] | 100 to 1000 nM | < 10 nM | 10 to 50 nM | 1 to 10 nM |  |  |  | 
COc1cc2c(cc1Nc1ncc(Br)c(Nc3ccc4nccnc4c3P(C)(C)=O)n1)-c1cnn(C)c1CNC2 [Compound 71] | 50 to 100 nM | < 10 nM | < 10 nM | 1 to 10 nM |  |  |  | 
COc1cc2c(cc1Nc1ncc(Br)c(Nc3ccc4nccnc4c3P(C)(C)=O)n1)-c1cnn(C)c1CN(C(C)C)C2 [Compound 72] |  |  |  | 1 to 10 nM | 50 to 100 nM | < 10 nM | 10 to 50 nM | 
COc1cc2c(cc1Nc1ncc(Br)c(Nc3ccccc3P(C)(C)=O)n1)-c1cnn(C)c1CCN2CC(F)(F)F [Compound 73] | 100 to 1000 nM | 10 to 50 nM | 10 to 50 nM | 10 to 50 nM |  |  |  | 
COc1cc2c(cc1Nc1ncc(Br)c(Nc3ccccc3P(C)(C)=O)n1)-c1cnn(C3CCN(C)CC3)c1CCN2C(C)C [Compound 75] | 100 to 1000 nM | 10 to 50 nM | 50 to 100 nM | 1 to 10 nM |  |  |  | 
COc1nc2c(cc1Nc1ncc(Br)c(Nc3ccccc3P(C)(C)=O)n1)-c1cnn(C)c1CCN2C [Compound 79] | 100 to 1000 nM | 10 to 50 nM | 10 to 50 nM | 10 to 50 nM |  |  |  | 
COc1nc2c(cc1Nc1ncc(Br)c(Nc3ccc4nccnc4c3NS(C)(=O)=O)n1)-c1cnn(C)c1CCN2 [Compound 81] | 100 to 1000 nM | < 10 nM | < 10 nM | 1 to 10 nM |  |  |  | 
COc1cc2c(cc1Nc1ncc(Br)c(Nc3ccccc3P(C)(C)=O)n1)-c1cnn(C)c1CCN2C1CCOCC1 [Compound 87] | 100 to 1000 nM | < 10 nM | < 10 nM | 1 to 10 nM |  |  |  | 
COc1cc2c(cc1Nc1ncc(Br)c(Nc3ccccc3P(C)(C)=O)n1)-c1cnn(C)c1C(F)(F)CN2 [Compound 92] | 100 to 1000 nM | < 10 nM | 10 to 50 nM | 1 to 10 nM |  |  |  | 
COc1cc2c(cc1Nc1ncc(C)c(Nc3ccccc3P(C)(C)=O)n1)-c1cnn(C)c1CCN2C(C)C [Compound 94] | 100 to 1000 nM | 10 to 50 nM | 10 to 50 nM | 1 to 10 nM |  |  |  | 
COc1cc2c(cc1Nc1ncc(Cl)c(Nc3ccncc3P(C)(C)=O)n1)-c1cnn(C)c1CCN2C(C)C [Compound 95] | 100 to 1000 nM | 10 to 50 nM | 50 to 100 nM | 1 to 10 nM |  |  |  | 
COc1cc2c(cc1Nc1ncc(Br)c(Nc3ccc4nccnc4c3P(C)(C)=O)n1)-c1cnn(C)c1CCN2C1CCN(C2CC(F)(F)C2)CC1 [Compound 96] | 100 to 1000 nM | < 10 nM | < 10 nM | 1 to 10 nM |  |  |  | 
COc1cc2c(cc1Nc1ncc(Br)c(Nc3ccncc3P(C)(C)=O)n1)-c1cnn(C)c1CCN2C(C)C [Compound 97] | 100 to 1000 nM | < 10 nM | 10 to 50 nM | 1 to 10 nM |  |  |  | 
COc1cc2c(cc1Nc1ncc(Br)c(Nc3ccc4nccnc4c3P(C)(C)=O)n1)-c1cnn(C3COC3)c1CCN2C(C)C [Compound 98] | 100 to 1000 nM | 10 to 50 nM | 10 to 50 nM | 1 to 10 nM |  |  |  | 
COc1cc2c(cc1Nc1ncc(Cl)c(Nc3cccnc3P(C)(C)=O)n1)-c1cnn(C)c1CCN2C(C)C [Compound 100] | 100 to 1000 nM | 10 to 50 nM | 10 to 50 nM | 1 to 10 nM |  |  |  | 
COc1cc2c(cc1Nc1ncc(Br)c(Nc3ccccc3P(C)(C)=S)n1)-c1cnn(C)c1CCN2C1CCN(C)CC1 [Compound 101] |  |  |  |  | 100 to 1000 nM | < 10 nM | < 10 nM | 1 to 10 nM
COc1cc2c(cc1Nc1ncc(Cl)c(Nc3ccc4nccnc4c3NS(C)(=O)=O)n1)-c1cnn(C)c1CCN2C(C)C [Compound 103] | 100 to 1000 nM | < 10 nM | < 10 nM | 1 to 10 nM |  |  |  | 
COc1cc2c(cc1Nc1ncc(C)c(Nc3ccc4nccnc4c3NS(C)(=O)=O)n1)-c1cnn(C)c1CCN2C(C)C [Compound 104] | 100 to 1000 nM | < 10 nM | < 10 nM | 1 to 10 nM |  |  |  | 
COc1cc2c(cc1Nc1ncc(Br)c(Nc3ccccc3P(C)(C)=S)n1)-c1cnn(C)c1CCN2C1CCN(C(C)C)CC1 [Compound 105] |  |  |  |  | 100 to 1000 nM | < 10 nM | 10 to 50 nM | 1 to 10 nM
COc1cc2c(cc1Nc1ncc(Br)c(Nc3ccc4nccnc4c3NC(C)=O)n1)-c1cnn(C)c1CCN2C(C)C [Compound 106] | 100 to 1000 nM | < 10 nM | 10 to 50 nM | 1 to 10 nM |  |  |  | 
